Measurements from patent US20230121313A1 (priority 2019, published 2023).

Key:
[1] = test system: patients with treatment-resistant depression (TRD); experiment: Adverse events, phase 2 dose-response study in TRD; assay type: in vivo, human
Procedure: (§1) Adverse events were monitored throughout the study. Other safety assessments (i.e., laboratory tests, vital signs, physical examination) were performed at pre-specified time points. Vital signs, the Clinician Administered Dissociative States Scale (CADSS; Bremner, “Measurement of dissociative states with the clinician-administered dissociative states scale (CADSS)”, J. Traumatic Stress, 1998, 11(1):125-136), and the 4-item positive symptom subscale from the Brief Psychiatric Rating Scale (BPRS; Overall, “The Brief Psychiatric Rating Scale. Psychological Reports”, 1962, 10:799-812) were assessed pre-dose, at 40 minutes, and 2 hours post-dose.
Safety data were analyzed in Period 1, Period 2, double-blind, and open-label data sets, for all subjects receiving at least 1 dose of study medication.

[2] = test system: patients with treatment-resistant depression (TRD); experiment: CADSS, phase 2 dose-response study in TRD; assay type: in vivo, human
Procedure: as §1

adult subjects with TRD = details: in vivo
Procedure: Blood pressure and pulse/heart rate measurements were assessed supine with a completely automated device. Manual techniques were used only if an automated device is not available. Blood pressure and pulse/heart rate measurements were preceded by at least 5 minutes of rest in a quiet setting without distractions (e.g., television, cell phones).
Descriptive statistics of temperature, pulse/heart rate, respiratory rate, pulse oximetry, and blood pressure (systolic and diastolic) (supine) values and changes from baseline were summarized at each scheduled time point. The percentage of subjects with values beyond clinically important limits were summarized.

[3] = double-blind, esketamine 84 mg, N = 17
[4] = double-blind, esketamine Total, N = 56

## CN[C@]1(c2ccccc2Cl)CCCCC1=O [esketamine, (S)-2-(2-chlorophenyl)-2-(methylamino)cyclohexanone]
[1]; [3]
  Headache, number of participants: 3
  Hypersomnia, number of participants: 0
  Hypertension, % of participants: (6) %
  Hypertension, number of participants: 1
  Hypoesthesia oral, % of participants: (12) %
  Hypoesthesia oral, number of participants: 2
  Insomnia, number of participants: 0
  Nasal discomfort, % of participants: (6) %
  Nasal discomfort, number of participants: 1
  Nausea, % of participants: (24) %
  Nausea, number of participants: 4
  Oropharyngeal pain, % of participants: (12) %
  Oropharyngeal pain, number of participants: 2
  Polyuria, number of participants: 0
  Sedation, % of participants: (6) %
  Sedation, number of participants: 1
  Throat irritation, % of participants: (12) %
  Throat irritation, number of participants: 2
  Total with events, % of participants: (88) %
  Total with events, number of participants: 15
  Tunnel vision, % of participants: (12) %
  Tunnel vision, number of participants: 2
  Vertigo, % of participants: (6) %
  Vertigo, number of participants: 1
  Vision blurred, % of participants: (12) %
  Vision blurred, number of participants: 2
[1]; [4]
  Dissociation, % of participants: (20) %
  Dissociation, number of participants: 11
  Dissociative disorder, % of participants: (13) %
  Dissociative disorder, number of participants: 7
  Dizziness, % of participants: (36) %
  Dizziness, number of participants: 20
  Dysgeusia, % of participants: (18) %
  Dysgeusia, number of participants: 10
  Feeling abnormal, % of participants: (7) %
  Feeling abnormal, number of participants: 4
  Headache, % of participants: (21) %
  Headache, number of participants: 12
  Hypersomnia, % of participants: (4) %
  Hypersomnia, number of participants: 2
  Hypertension, % of participants: (5) %
  Hypertension, number of participants: 3
  Hypoesthesia oral, % of participants: (13) %
  Hypoesthesia oral, number of participants: 7
  Insomnia, % of participants: (4) %
  Insomnia, number of participants: 2
  Nasal discomfort, % of participants: (5) %
  Nasal discomfort, number of participants: 3
  Nausea, % of participants: (18) %
  Nausea, number of participants: 10
  Oropharyngeal pain, % of participants: (5) %
  Oropharyngeal pain, number of participants: 3
  Polyuria, % of participants: (4) %
  Polyuria, number of participants: 2
  Sedation, % of participants: (7) %
  Sedation, number of participants: 4
  Throat irritation, % of participants: (5) %
  Throat irritation, number of participants: 3
  Total with events, % of participants: (75) %
  Total with events, number of participants: 42
  Tunnel vision, % of participants: (4) %
  Tunnel vision, number of participants: 2
  Vertigo, % of participants: (7) %
  Vertigo, number of participants: 4
  Vision blurred, % of participants: (4) %
  Vision blurred, number of participants: 2
[1]; phase 2, double-blind phase
  Participants with adverse events leading to discontinuation of study drug: 5%
[1]; phase 2, open-label phase
  Adverse event dizziness, % of participants: 38.6%
  Adverse event dysgeusia, % of participants: 22.8%
  Adverse event headache, % of participants: 14.0%
  Adverse event nausea, % of participants: 15.8%
  Adverse event sedation, % of participants: 10.5%
  Participants reporting transient dissociative symptoms: 24.6%
  Participants with adverse events leading to discontinuation of study drug: 2%
[2]
  CADSS perceptual changes/dissociative symptoms resolved by: ≤ 2 h
  CADSS perceptual changes/dissociative symptoms: time of peak: 30 to 40 min
Adult subjects with TRD
  Maximum mean increase in diastolic BP (across all dosing days): 8.1
  Transient blood pressure increases: returned to normal range at: 90 min
  Transient blood pressure increases: time of peak post dose: approximately 40 minutes
